Test results from a melting point compilation (Tetko et al.; mined from patent text by program, amines drawn as free bases though some values may be those of a salt).

Structure (SMILES)	melting point [°C]
C#CCN(c1ccc(C(=O)OC(C)(C)C)cc1)C1CCc2cc3nc(COC(=O)C(C)(C)C)[nH]c(=O)c3cc21 (racemic)	134
CNC(=O)C1(Oc2ccc3c(c2)c(-c2cc4cccnc4[nH]2)cn3C)CCC1	249 to 250
CCOC(=O)c1conc1-c1ccc(F)c(Br)c1	96 to 97
Cc1ccccc1OCC(O)CNC(C)(C)COc1ccc(C(N)=O)cn1 (configuration not stated)	122 to 128
Cc1nc(N)nc(N)c1-c1cccc2ccccc12	224 to 225
O=C(Cn1c(=O)n(S(=O)(=O)c2ccc(Cl)cc2)c(=O)c2ccc(Cl)cc21)Nc1ccc(C(=O)O)cc1	219 to 221
CNS(=O)(=O)c1cccc(-c2cnc3[nH]cc(C(=O)C(C)(C)C)c3n2)c1	245 to 247
CCN1C(=O)Cc2cc3c(cc21)CCO3	106 to 107
O=c1[nH]c(COc2ccc(Cl)c(Cl)c2)nc2nccnc12	285 to 287
Cc1cncc(C(=O)Nc2cc(-c3c(-c4ccc(F)c(C)c4)nc4cccnn34)ccn2)c1	238 to 240
Cc1ccc([N+](=O)[O-])cc1Nc1nccc(-c2cncc(Br)c2)n1	206 to 208
CCOC(=O)CCCCCCC(NC(N)=O)C(=O)OCC (configuration not stated)	79 to 80
COc1cc(CCN2CCCCC2)cc(OC)c1-c1ccc(C[C@H](NC(=O)c2c(Cl)cccc2Cl)C(=O)O)cc1	195
CCOC(=O)C1=C(N)NC2=C(C(=O)CCC2)C1c1ccccc1N=[N+]=[N-] (configuration not stated)	209
CC(C)CNS(=O)(=O)c1ccccc1CCOS(C)(=O)=O	106 to 108
CCCn1c(=O)c2[nH]c(C(C)Cc3ccncc3)nc2n(CCC)c1=O (configuration not stated)	215 to 217
CCCCc1nc(S(=O)c2ccccc2)c(C(=O)O)n1Cc1ccc(-c2ccccc2C(=O)O)cc1 (configuration not stated)	195
CCOC(=O)c1ccc(OCc2ccc(C3CCN(C(=O)OC(C)(C)C)CC3)cn2)cc1F	92 to 95
COC(=O)c1ccc2nc(C)n(Cc3ccc(C=C4SC(=O)NC4=O)cc3Cl)c2n1	> 300
COC(=O)C1=C(C(=O)OC)C(N)C2=C(c3cc4ccccc4s3)N=NC2=N1 (configuration not stated)	218 to 220
CCNc1ccc(N2CCOC2=O)cc1[N+](=O)[O-]	140

Structure (SMILES)	melting point [°C]
COc1cc(C=C[N+](=O)[O-])ccc1OCc1cccc2ccccc12	120 to 123
Cc1cc(Cc2cc(C)c(N)c(C)c2)cc(C)c1N	119 to 120
Cc1ccc(CO)nc1-c1ccccn1	51 to 53
CCn1cc(C(=O)O)c(=O)c2cc3cc(F)c(N4CCNC(c5cccc(F)c5)C4)cc3nc21 (racemic)	284
CC(=O)CCC1(C(C)C)Cc2cc(OCC(=O)O)c(Cl)c(Cl)c2C1=O (configuration not stated)	125 to 128
CC(C)n1nc(-c2cc(C(N)=O)cnc2-c2ccccc2)ccc1=O	229 to 230
CC(=O)n1nc(-c2cc(C(C)(C)C)c(O)c(C(C)(C)C)c2)c2cccnc21	169 to 171
CCNC(=O)ON(C(=O)CC)C(=O)NCC	104 to 106
Clc1ccc(OCc2cccs2)cc1	45 to 47
Clc1ccc(NN=Cc2cccs2)cc1	137
COc1ccc2oc(Cc3cccnc3)c(CCNC(C)=O)c2c1	117
O=CN1CCN(c2nc(Cl)nc(Cl)n2)CC1	163 to 165
CS(=O)(=O)c1ccc(-c2scnc2-c2ccc(F)cc2)cc1	138 to 139
COc1ccc(/C=C/CCCCO)cc1	66
Clc1ccc(Nc2ncnc(-c3ccnc(N4CCCCC4)c3)n2)cc1	205 to 206
CCCOc1cc(C)c(Cl)c2c(=O)c3ccccc3sc12	116 to 118
O=C(c1ccc(-c2ccccc2)cc1)N1CCCCc2sccc21	164 to 166
O=C(Nc1nc(-c2cc(Cl)nc(Cl)c2)cs1)NS(=O)(=O)c1ccccc1C(F)(F)F	> 280
CCn1c(-c2ccc(Cl)c(S(=O)(=O)N(C)C)c2)csc1=Nc1ccccc1C	164 to 166
CC12CCC3c4ccc(O)cc4CC(Sc4ccc(C=CC(=O)O)cc4)C3C1CCC2O (configuration not stated)	215 to 220
CC(=O)SCC(Cc1ccccc1)C(=O)NC1(C(=O)O)CC1 (configuration not stated)	169 to 171

Structure (SMILES)	melting point [°C]
COC(=O)c1cc(Cl)c(NC(C)=O)cc1OC1C=CCCC1 (configuration not stated)	100 to 102
C=CCOc1cccc(C(=O)c2ccccc2C(=O)OC)c1	50 to 52
CCC(C#N)(COc1ccc(Cl)cc1)c1cccnc1 (configuration not stated)	82.1
c1cn(Cc2ccc(OCc3nnn[nH]3)cc2)cn1	189 to 191
CCOCc1nc2c(N)nc3cccnc3c2n1NC(C)C	150 to 152
O=S(=O)(Cc1n[nH]c(-c2ccco2)n1)c1ccccc1	185 to 186
CC1(C)SC(=S)N(c2ccccn2)C1O (configuration not stated)	80
Nc1ccc(-c2c(Cc3ccccc3)sc3ncnc(N)c23)cc1	208 to 210
Cc1ccccc1CNC(=O)c1ccc2cnccc2n1	120 to 121
CC(=O)Nc1c(C(=O)c2ccc(Cl)cc2)[nH]c2cc(Cl)ccc12	175 to 176
O=C1c2ccccc2C(=O)N1Cc1noc(-c2ncn3c2[C@@H]2CCN2C(=O)c2sccc2-3)n1	155 to 157
COc1ccc(C(CI)(OC)OC)cc1	54 to 55
CC(O)c1ccc(-c2ccc(N)cc2)o1 (configuration not stated)	100 to 104
CC[Si](C#CC1(CO)OC(n2ccc(=O)[nH]c2=O)C(O)C1O)(CC)CC (configuration not stated)	183 to 186
O=C1c2cc3nnn(C4CCC4)c(=O)c3cc2OC2CCCN12 (configuration not stated)	216 to 218
CNC(=O)n1sc(N(C)C)nc1=O	164
O=C(c1ccccc1)c1ccc([N+](=O)[O-])c(C(=O)NCc2ccccc2)c1	167
O=C(O)CCc1cc2cc(Cl)ccc2n1S(=O)(=O)c1cccc2ccccc12	165 to 175
O=C1[C@H]2CCC[C@H]2Nc2ccccc2N1Cc1ccc2ccccc2c1 (relative stereo)	148
CCOC(=O)c1nsc(=O)o1	49

Results, then the molecule that gave them:

melting point [°C]	Structure (SMILES)
106 to 108	CCOC(=O)c1ccc2cnccc2n1
96 to 98	CCOC(=O)C1CC(=O)c2c(OC)ccc(OC)c2C1 (configuration not stated)
137 to 139	CCOC(=NC(=O)NC)N1Cc2ccccc2-c2ccccc2C1
100 to 102	COc1cccc(-c2n[nH]c(-c3ccccc3C)n2)c1
174 to 175	CCOP(=O)(/C=C/c1cn(-c2ccccc2)nc1OCc1ccc(OCc2nc(-c3cccc(CC(=O)O)c3)oc2C)c(OC)c1)OCC
136 to 138	CCC(Oc1ccccc1F)C(=O)OC1CC(O)C=C2C=CC(C)C(CCC3CC(O)CC(=O)O3)C21 (mixture of isomers)
124 to 125	OCc1ccc(OCc2ccc3ccccc3n2)nc1
120 to 122	CC(C)C[C@H](NC(=O)OCc1ccccc1)C(=O)N[C@@H](Cc1ccccc1)C(=O)O
178 to 180	C=CC[C@@H](C(=O)N[C@H](C(=O)N[C@H](C)c1ccccc1)C(C)(C)C)[C@@H]1OC(C)(C)OC1=O
72 to 74	CC#CCOc1ccc(S(=O)(=O)NC(CO)C(=O)OC)cc1 (configuration not stated)
175 to 176	OCC1Cc2c([nH]c3ccccc23)CN1C(=S)SCc1ccc(Cl)cc1 (configuration not stated)
87 to 89	NC(=O)CCCCCc1ccc(Cl)cc1
115 to 117	COC(=O)COc1ccc(C2C(=O)Oc3c2cc(C(C)(C)C)cc3C(C)(C)C)cc1 (configuration not stated)
228 to 230	Cc1ccc(-c2nc3ccc(C)cn3c2CC(=O)O)cc1
99.5 to 100	Cc1c(C(F)(F)F)noc1NS(=O)(=O)c1ccccc1
79 to 82	CCCCn1cnnc1SCC(=O)c1ccc(OC)cc1
201 to 203	c1ccc(N2CCN(CCc3nc4ccccc4[nH]3)CC2)cc1
93 to 94	COc1ccc(C=Cc2cccc(C(=O)O)c2)cc1OC1CCCC1
113 to 114	CCOC(=O)Cn1c(-c2ccc3c(c2)OCCO3)nc2ccccc21
249 to 250	Cc1cccn2c(C)c(-c3ccc4c(c3)NC(=O)C(C)O4)nc12 (configuration not stated)

melting point [°C]	Structure (SMILES)
131 to 132	Cc1ccc(N(c2ccc(C)cc2)c2ccc(C(O)(CCCO)CCCO)cc2)cc1
115 to 119	Oc1ccc(C2=CCCCC2)cc1
86 to 89	COC(=O)C1(CN=Cc2ccccc2)C=CC=CC1 (configuration not stated)
80	CCOC(=O)c1cc(Cl)ccc1N
172	CC(C)(C)Cc1c(CC(C)(C)C(=O)O)n(Cc2ccc(Cl)cc2)c2ccc(OCc3ccc4ccccc4n3)cc12
118 to 120	O=C1CCC(Cc2ccc(Cl)cc2)CN1 (configuration not stated)
148 to 149	COC(=O)c1ccc(Cc2c[nH]c3ccc(C#N)cc23)c(OC)c1
63 to 64	CCOC(=O)C(C(=O)OCC)(c1ccccc1)N1CCN(CCO)CC1
196 to 198	CC(=O)Nc1c(C(=O)c2occc2CO)[nH]c2cc(Cl)ccc12
324 to 327	COc1ccc2c(c1)C(=O)c1ccc(C(=O)O)cc1S2(=O)=O
56	Cc1ccc(-c2nsc3ccccc23)cc1
164 to 166	CCCOCCOc1ccccc1-c1ccc2c(c1)C=C(C(=O)Nc1ccc(CN(C)C3CCOCC3)cc1)CCS2(=O)=O
117 to 119	Brc1ccc(-c2csc(Br)n2)cc1
73 to 75	CCOC(=O)C1CCCN(C(=O)/C=C/c2ccc(Sc3ccc4c(c3)OCCO4)c([N+](=O)[O-])c2)C1 (configuration not stated)
96 to 98	CSCc1cnc2c([N+](=O)[O-])cccc2c1Cl
250	O=C(O)C1CCC2C(=O)OC(=O)C2C1 (configuration not stated)
121 to 122	ClCSc1n[nH]c(C(c2ccccc2)(c2ccccc2)c2ccccc2)n1
272 to 274	O=C(O)c1ccc(NC(=O)C(c2ccc(Cl)cc2)c2ccc(Cl)cc2)cc1
> 250	O=C(O)/C=C/c1ccc(-c2nc3c(=O)n(CCC4CCCCCC4)c(=O)n(CCC4CCCCCC4)c3[nH]2)cc1
205 to 206	CC(C)S(=O)(=O)c1cccc(-c2nc(=O)c3ccccc3s2)n1
